# Reference: PMC12040169 (PLOS Biology, 2025)
# Experiment: in vitro
# Conditions: human, hela cells, % viability
row,SMILES,"viability at 28.5 h, 10 µM"
1,Fc1cccc(SCc2ccccc2)c1 [CBK002912],117%
2,COc1ccc(C(C)C)cc1-c1cn2ccnc2c(Nc2cccc(OC(F)(F)C(F)F)c2)n1 [CBK038049],95.9%
3,Cc1cccn2c(=O)cc(CN3CCn4c(nnc4C4CC4)C3)nc12 [CBK305232],102%
4,Cc1ccc(-c2cc(C(=O)O)c3cc4c(C(=O)O)cc(-c5ccc(C)o5)nc4cc3n2)o1 [CBK264342],87.4%
5,CCN1C(=O)C2(CC(=O)N(CCc3scnc3C)C2=O)c2cc(C)ccc21 (stereo not drawn) [CBK075217],96.8%
6,CCC(Oc1ccccc1F)C(=O)Nc1cc(C)on1 (stereo not drawn) [CBK305558],98.5%
7,Cc1nn(C)c(C)c1CNC(=O)N1CCN(CC(F)F)CC1 [CBK304249],102%
8,NC(=O)C1CCN(c2ncnc3c2oc2ccccc23)CC1 [CBK287789],87.6%
9,Cc1noc(C)c1C(=O)N1CCC(c2nc(C)n3ccsc23)CC1 [CBK285239],101%
10,CCOc1ccc(-c2nn(-c3ccccc3)cc2/C=C2\SC(=S)N(CC(=O)O)C2=O)cc1F [CBK265647],105%
11,Oc1cc(C(F)(F)F)nc(Nc2ccccc2)n1 [CBK000517],89.3%
12,CN(c1cccc(C#N)c1)C1CCN(c2nccn(C)c2=O)C1 (stereo not drawn) [CBK304718],105%
13,CCn1cncc1CN(CCCn1ccnc1)CC1CC=CCC1 (stereo not drawn) [CBK283220],101%
14,COCCOc1ncccc1OCc1ccccc1 [CBK001456],92.9%
15,CCOC(=O)CCCCCCC(=O)N1CCN(c2ccc(C(F)(F)F)cc2)CC1 [CBK091327],107%
16,COc1ccc(CN2CCN(C(=O)c3ccc(C#N)cc3)CC2)cc1 [CBK305698],99.6%
17,Cc1ccc2c(NC(=O)c3cc4c([nH]c3=O)CCC4)c(C)ccc2n1 [CBK281568],93%
18,COc1ccc(S(=O)(=O)N2CCN(c3ccccc3F)CC2)cc1 [CBK070377],87.1%
19,C=CCn1c(SC(C)C(=O)O)nnc1-c1ccc(OC)cc1 (stereo not drawn) [CBK268958],91.1%
20,CC(C)NC(=O)C1CC2CCC1(C)CC21NC(=O)c2ccccc2O1 (stereo not drawn) [CBK285261],92%
21,O=C(CCOc1ccccc1)Nc1c(F)cc(F)cc1OC1CCNCC1 [CBK045897T],105%
22,CCCn1c(N)c(C(=O)CSc2ncnc3sc4c(c23)CCCC4)c(=O)[nH]c1=O [CBK297556],77.8%
23,COCCN1CCN(c2cncc(-c3ccc(O)cc3)n2)CC1 [CBK126951T],93.6%

row,SMILES,"viability at 28.5 h, 10 µM"
1,Cc1cc(NC(=O)c2cc3ccccc3oc2=O)nc2c1c(=O)oc1ccccc12 [CBK287445],100%
2,CC(C)S(=O)(=O)N1C[C@@H](c2ccccc2)[C@H]2[C@H]1CCCCCN2C [CBK283083],91.1%
3,CCN(CC)C(=O)C1CCCN(C(=O)NCc2ccc(Cl)c(Cl)c2)C1 (stereo not drawn) [CBK156119],98.8%
4,CC(CN(C)C(=O)Cn1cccc(C(=O)NC2CCCCC2)c1=O)c1ccccc1 (stereo not drawn) [CBK286066],92.5%
5,Cc1ccc(-c2nc(Nc3ccc(Br)cc3)sc2CC(=O)O)cc1 [CBK264251],101%
6,O=c1ccc2c(-c3ccccc3)ccnc2[nH]1 [CBK073723],94.2%
7,FC(F)Oc1ccc(NC(=S)NCCN2CCOCC2)cc1 [CBK028000],87.7%
8,CC(C)NC(=O)Nc1ccc(C(=O)N(CC#N)C2CC2)cc1 [CBK306120],90.5%
9,CC(C)CC(=O)N1C[C@H]2CCCN(Cc3ccccn3)[C@H]2C1 [CBK285269],86.6%
10,Cc1cc(NCC2(CO)CCOCC2)nc(N2CCCC2)n1 [CBK307005],85.8%
11,Cn1ccc(N2CCCC(NC(=O)c3scnc3C(C)(C)C)C2=O)n1 (stereo not drawn) [CBK305453],94.9%
12,COc1cc(NS(=O)(=O)c2ccc(NC(=O)c3ccc(C)o3)cc2)nc(OC)n1 [CBK268182],91.6%
13,Cc1nc(C2(O)CCCN(Cc3cccc(F)c3)CC2)sc1CCOc1ccccc1 (stereo not drawn) [CBK286024],89.6%
14,Cc1cc(O)c(-c2n[nH]c3c2C(c2ccccc2F)N(Cc2cccnc2)C3=O)cc1C (stereo not drawn) [CBK268831],89.8%
15,Cc1ncc(CO)c(CN)c1O [CBK278211C],86.8%
16,CCCC1NCCn2cccc21 (stereo not drawn) [CBK007074F],85.6%
17,O=C(Cc1csc2ccccc12)Nc1cnc(-c2ccc(F)cc2)c(-c2ccoc2)n1 [CBK037102],93.3%
18,O=C1CC(N2CCC(c3nc4ccccc4o3)CC2)C(=O)N1Cc1cccs1 (stereo not drawn) [CBK268735],104%
19,Cc1[nH]c2cccc(C(=O)N3CCCCC3CCNC(=O)c3ccccc3)c2c1C (stereo not drawn) [CBK285976],82%
20,CCOC(=O)c1cnn(C)c1-c1ccc(F)cc1OC [CBK149233],92.8%
21,c1ccc(-c2nc(N3CCOCC3)n3ccccc23)cc1 [CBK014407],89.2%
22,O=C(CCCC(=O)N1CCCC1)N1CCCC1 [CBK006992],108%
23,c1ccc(CNc2nc(-c3ccco3)cn3ccnc23)nc1 [CBK037482],96.6%

row,SMILES,"viability at 28.5 h, 10 µM"
1,COCC(=O)N1CCc2sccc2C1c1ccc(NCc2ccc(F)cc2F)cc1 (stereo not drawn) [CBK286460],100%
2,Cc1nn(CC(=O)NC(C)C)c(=O)c2cc3ccsc3n12 [CBK284027],83.9%
3,S=c1[nH]cc(-c2ccc(Br)cc2)o1 [CBK288498],92.8%
4,COc1ncccc1C(=O)N1CCN(c2ccccc2)CC1 [CBK200166],103%
5,O=C(Nc1cccc(-c2nnc3n2CCCCC3)c1)[C@@H]1CCCN1C(=O)c1cccs1 [CBK297090],109%
6,CCCC/C=C/c1nccnc1NCc1ccc2c(c1)OCO2 [CBK037304],98.1%
7,Cc1oc2ccc(O)cc2c1C(=O)N(C)CCN1CCCCC1 [CBK282158],83%
8,CN(C)S(=O)(=O)Nc1ccc2c(ccn2Cc2ccccc2)c1 [CBK155765],86.6%
9,O=[N+]([O-])c1ccc(CN(CCc2ccccc2)Cc2ccccc2)cc1 [CBK261866],99.2%
10,Cc1ncccc1C(=O)N1CCC2(CCc3ccccc3C(=O)N2)C1 (stereo not drawn) [CBK283338],108%
11,Fc1cccc(NCc2ccccc2)n1 [CBK000149],94.9%
12,CCn1nc(C)c(C(C)NC(=O)C(C)n2cc(Cl)cn2)c1C (stereo not drawn) [CBK281550],89.7%
13,CO[C@@]12CC[C@@H](OCC3CC3)C[C@@H]1N(Cc1c(C)cnn1C)CC2 [CBK307072],97%
14,O=C(/C=C\c1ccccc1)CC1(O)C(=O)N(Cc2cccc3ccccc23)c2ccccc21 (stereo not drawn) [CBK264761],96.7%
15,O=C1CC(c2ccccc2)CC(=O)C1=CNCc1ccccn1 (stereo not drawn) [CBK262521],105%
16,CC(C)=NOc1ncccc1C#N [CBK007841],115%
17,COc1ccc(S(=O)(=O)NCc2ccc3c(c2)OCO3)cc1C(=O)O [CBK264070],97.6%
18,Oc1cc(C(F)(F)F)nc(NCc2ccc(-c3ccccc3)cc2)n1 [CBK002395],105%
19,Cn1cc(C(=O)NC2CCN(C(=O)c3ccc4c(c3)CCC4)CC2)cn1 [CBK305664],97.8%
20,CCOC(=O)c1ccc(-n2c(CCC(=O)O)ccc2-c2ccc(F)cc2)cc1O [CBK266010],94.1%
21,O=C(CCCc1nc(-c2ccc(Cl)cc2)no1)NCc1cccnc1 [CBK269415],90.4%
22,O=C(CC1SC(=O)NC1=O)Nc1ccccc1O (stereo not drawn) [CBK057932],98.5%
23,CC(C)Nc1cccnc1N1CCN(C(=O)c2cc3cc(NS(=O)(=O)CCc4ccncc4)ccc3[nH]2)CC1 [CBK012661],95.8%

row,SMILES,"viability at 28.5 h, 10 µM"
1,Cc1ccc(S(=O)(=O)c2cccc(S(=O)(=O)N3CCOCC3)c2)cc1S(=O)(=O)N1CCOCC1 [CBK262117],109%
2,c1ccc2c(c1)NCC21CCNCC1 [CBK022583],101%
3,CN1CCN(Cc2c(C(C)(C)C)[nH]c3ncccc23)CC1 [CBK285334],104%
4,COc1ccc(CNC(=O)c2cn[nH]c2-c2ccccc2)c(OC)c1 [CBK288057],100%
5,CN1CCN(C(=O)CCC2CCCO2)C(c2ccccc2)C1 (stereo not drawn) [CBK282015],101%
6,CCOc1cc(C2CC(=O)NC(SCC(=O)Nc3cccc(C(F)(F)F)c3)=C2C#N)ccc1O (stereo not drawn) [CBK265778],104%
7,COCCNc1cc(-c2ccco2)ncn1 [CBK090796],92.5%
8,O=C(CSc1nnc(-c2ccncc2)n1-c1ccccc1)N/N=C/c1coc2ccccc2c1=O [CBK262866],101%
9,CC1(C)CC(=O)c2sc(NC(=O)c3ccc(Oc4ccccc4)cc3)nc2C1 [CBK144106],95.5%
10,COc1cccc(CN2CCCC(NC(=O)c3csc(C(C)=O)c3)C2)c1 (stereo not drawn) [CBK307297],87.6%
11,Cc1ccc2[nH]c(C)c(CC(=O)N(C)CCN3CCCCC3)c2c1 [CBK282749],87.8%
12,O=C(O)CCC(=O)NCc1ccc2c(c1)OCO2 [CBK286930],91.6%
13,Cc1cccc(C(=O)N[C@@H](C)Cn2nc3c(cc2=O)CCCC3)c1 [CBK284563],89.1%
14,CC(=O)Nc1ccc(-n2cc(CN3CCC(Sc4ccccn4)CC3)nn2)cc1 [CBK149476],99.5%
15,COc1ccc(NC(=O)c2cnc(-c3ccc(Cl)cc3)c(-c3ccc(C(C)=O)s3)c2)cn1 [CBK036643],92.2%
16,COC(=O)CCc1ccc(S(=O)(=O)N2CCCN(Cc3cccc(C(F)(F)F)c3)CC2)cc1 [CBK062983],100%
17,CC(C)C(=O)Nc1cc2ccccc2c(-c2cc(F)cc(F)c2)n1 [CBK085775],95.4%
18,O=S(=O)(c1ccccc1)c1nc(-c2ccco2)oc1NCc1cccnc1 [CBK287610],69.5%
19,O=C(O)c1[nH]nc2c1COc1ccccc1-2 [CBK266356],97.5%
20,Cc1[nH]c2ccccc2c1C(=O)C(=O)Nc1sc(C)c(C)c1C#N [CBK270038],85.9%

# Same assay, conditions: human, hela cells, % viability, bulk resorufin, single well
row,SMILES,"viability at 28.5 h, 10 µM"
1,CC(=O)[C@H]1C[C@@H](CC(=O)N2CCC(C(C)=O)(c3ccccc3)CC2)C1(C)C [CBK091323],109%
